{"source": "PubChem BioAssay AID330", "about": "(DTP/NCI, 2004)", "system": "P388 leukemia ip, CD2F1 mice, survival T/C", "assay": "NCI In Vivo Anticancer Drug Screen. Data for tumor model P388 Leukemia (intraperitoneal) in CD2F1 (CDF1) mice", "conditions": "endpoint: median survival time, higher = longer survival", "how_it_was_run": "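Mice carrying the transplanted tumor received test compound or vehicle. Survival was recorded in each group, and the value is the treated-group measurement divided by that of the vehicle-treated control group.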", "key": {"[1]": {"conditions": "dose: 50.0 mg/kg/injection, schedule: Q01DX005 (ip), vehicle: saline with Tween-80"}, "[2]": {"conditions": "dose: 100.0 mg/kg/injection, schedule: Q01DX005 (ip), vehicle: saline with Tween-80"}, "[3]": {"conditions": "dose: 200.0 mg/kg/injection, schedule: Q01DX005 (ip), vehicle: saline with Tween-80"}, "[4]": {"conditions": "dose: 60.0 mg/kg/injection, schedule: Q01DX005 (ip), vehicle: Klucel (hydroxypropylcellulose) (HPC)"}, "[5]": {"conditions": "dose: 120.0 mg/kg/injection, schedule: Q01DX005 (ip), vehicle: Klucel (hydroxypropylcellulose) (HPC)"}}, "note": "Several values for one entry are separate records, joined by “and”; a condition that tells them apart may be missing. Equal entries are not always repeated. Toxic doses and inconclusive results are not listed."}
{"smiles": "O=C1Nc2ccccc2C12Nc1ccccc1S2", "note": "(configuration not stated)", "values": [{"measurement": "T/C", "setting": "[1]", "result": "100 % of control"}, {"measurement": "T/C", "setting": "[2]", "result": "101 % of control"}, {"measurement": "T/C", "setting": "[3]", "result": "110 % of control"}]}
{"smiles": "CC(=O)OCC1OC(n2cc(CI)nn2)C(OC(C)=O)C(OC(C)=O)C1OC(C)=O", "note": "(configuration not stated)", "values": [{"measurement": "T/C", "setting": "dose: 6.25 mg/kg/injection, schedule: Q01DX009 (ip), vehicle: distilled water + Tween-80", "result": "102 % of control and 103 % of control"}, {"measurement": "T/C", "setting": "dose: 12.5 mg/kg/injection, schedule: Q01DX009 (ip), vehicle: distilled water + Tween-80", "result": "103 % of control and 96 % of control"}, {"measurement": "T/C", "setting": "dose: 25.0 mg/kg/injection, schedule: Q01DX009 (ip), vehicle: distilled water + Tween-80", "result": "111 % of control and 115 % of control"}, {"measurement": "T/C", "setting": "dose: 50.0 mg/kg/injection, schedule: Q01DX009 (ip), vehicle: distilled water + Tween-80", "result": "102 % of control and 115 % of control"}, {"measurement": "T/C", "setting": "dose: 100.0 mg/kg/injection, schedule: Q01DX009 (ip), vehicle: distilled water + Tween-80", "result": "115 % of control"}]}
{"smiles": "Cc1cccc(C)c1NC(=O)C(=O)C(C#N)c1c(Cl)cccc1Cl", "note": "(configuration not stated)", "values": [{"measurement": "T/C", "setting": "dose: 60.0 mg/kg/injection, schedule: Q01DX005 (ip), vehicle: saline with Tween-80", "result": "102 % of control"}, {"measurement": "T/C", "setting": "dose: 120.0 mg/kg/injection, schedule: Q01DX005 (ip), vehicle: saline with Tween-80", "result": "102 % of control"}, {"measurement": "T/C", "setting": "dose: 240.0 mg/kg/injection, schedule: Q01DX005 (ip), vehicle: saline with Tween-80", "result": "104 % of control"}]}
{"smiles": "C=C1C(=O)O[C@@H]2C3=C(C)C(=O)CC[C@]3(C)CC[C@@H]12", "values": [{"measurement": "T/C", "setting": "dose: 100.0 mg/kg/injection, schedule: Q04DX002 (ip), vehicle: saline with Tween-80", "result": "108 % of control"}]}
{"smiles": "CC(C)(C)C1=CC2(C(C)(C)C)OC2C(=O)C1=O", "note": "(configuration not stated)", "values": [{"measurement": "T/C", "setting": "dose: 3.12 mg/kg/injection, schedule: Q01DX009 (ip), vehicle: saline with Tween-80", "result": "105 % of control"}, {"measurement": "T/C", "setting": "dose: 6.25 mg/kg/injection, schedule: Q01DX009 (ip), vehicle: saline with Tween-80", "result": "105 % of control"}, {"measurement": "T/C", "setting": "dose: 12.5 mg/kg/injection, schedule: Q01DX009 (ip), vehicle: saline with Tween-80", "result": "98 % of control"}]}
{"smiles": "CCC12CCCN3CCc4c(n(c5ccc(Br)cc45)C(=O)CC1)C32", "note": "(configuration not stated)", "values": [{"measurement": "T/C", "setting": "dose: 12.5 mg/kg/injection, schedule: Q01DX005 (ip), vehicle: saline with Tween-80", "result": "99 % of control"}, {"measurement": "T/C", "setting": "dose: 25.0 mg/kg/injection, schedule: Q01DX005 (ip), vehicle: saline with Tween-80", "result": "90 % of control"}, {"measurement": "T/C", "setting": "[1]", "result": "88 % of control and 91 % of control"}]}
{"smiles": "C1=CCC2COCC2C1", "note": "(configuration not stated)", "values": [{"measurement": "T/C", "setting": "dose: 50.0 mg/kg/injection, schedule: Q01DX009 (ip), vehicle: saline with Tween-80", "result": "98 % of control"}, {"measurement": "T/C", "setting": "dose: 100.0 mg/kg/injection, schedule: Q01DX009 (ip), vehicle: saline with Tween-80", "result": "102 % of control"}, {"measurement": "T/C", "setting": "dose: 200.0 mg/kg/injection, schedule: Q01DX009 (ip), vehicle: saline with Tween-80", "result": "100 % of control"}]}
{"smiles": "C[C@@H]1C(=O)O[C@H]2[C@H]1CC[C@@]1(C)C[C@@H](I)C(=O)[C@@H](C)[C@H]21", "values": [{"measurement": "T/C", "setting": "[4]", "result": "92 % of control"}, {"measurement": "T/C", "setting": "[5]", "result": "108 % of control"}]}
{"smiles": "CC(C)CC(NC(=O)OC(C)(C)C)C(=O)NC(Cc1c[nH]c2ccccc12)C(=O)NN", "note": "(configuration not stated)", "values": [{"measurement": "T/C", "setting": "dose: 25.0 mg/kg/injection, schedule: Q01DX009 (ip), vehicle: saline", "result": "87 % of control"}, {"measurement": "T/C", "setting": "dose: 50.0 mg/kg/injection, schedule: Q01DX009 (ip), vehicle: saline", "result": "94 % of control"}, {"measurement": "T/C", "setting": "dose: 100.0 mg/kg/injection, schedule: Q01DX009 (ip), vehicle: saline", "result": "92 % of control"}, {"measurement": "T/C", "setting": "dose: 200.0 mg/kg/injection, schedule: Q01DX009 (ip), vehicle: saline", "result": "92 % of control"}]}
{"smiles": "CC1(C)CC(OP(=S)(OC2CC(C)(C)N(O)C(C)(C)C2)N2CC2)CC(C)(C)N1O", "values": [{"measurement": "T/C", "setting": "dose: 50.0 mg/kg/injection, schedule: Q01DX009 (ip), vehicle: saline + alcohol", "result": "124 % of control"}, {"measurement": "T/C", "setting": "dose: 200.0 mg/kg/injection, schedule: Q01DX009 (ip), vehicle: saline + alcohol", "result": "168 % of control"}]}
{"smiles": "CCOC(=O)c1cncc(Br)c1", "values": [{"measurement": "T/C", "setting": "[1]", "result": "113 % of control"}, {"measurement": "T/C", "setting": "[2]", "result": "103 % of control"}, {"measurement": "T/C", "setting": "[3]", "result": "113 % of control"}]}
{"smiles": "COC1(OC)C(C#N)(C#N)C2(C(=O)Nc3ccccc32)C1(OC)OC", "note": "(configuration not stated)", "values": [{"measurement": "T/C", "setting": "[4]", "result": "97 % of control"}, {"measurement": "T/C", "setting": "[5]", "result": "101 % of control"}, {"measurement": "T/C", "setting": "dose: 240.0 mg/kg/injection, schedule: Q01DX005 (ip), vehicle: Klucel (hydroxypropylcellulose) (HPC)", "result": "103 % of control"}]}
{"smiles": "N#Cc1c(-c2ccccc2)c(C#N)c(=O)n(N)c1N", "values": [{"measurement": "T/C", "setting": "dose: 50.0 mg/kg/injection, schedule: Q01DX005 (ip), vehicle: Klucel (hydroxypropylcellulose) (HPC)", "result": "91 % of control and 93 % of control"}, {"measurement": "T/C", "setting": "dose: 100.0 mg/kg/injection, schedule: Q01DX005 (ip), vehicle: Klucel (hydroxypropylcellulose) (HPC)", "result": "86 % of control"}, {"measurement": "T/C", "setting": "dose: 200.0 mg/kg/injection, schedule: Q01DX005 (ip), vehicle: Klucel (hydroxypropylcellulose) (HPC)", "result": "86 % of control"}]}
{"smiles": "COc1cccc2c1C(=O)c1c(O)c3c(c(O)c1C2=O)C[C@@](O)(C(=O)COC(=O)Cc1ccccc1)C[C@@H]3OC1CC(N)C(O)C(C)O1", "note": "(some centres not stated)", "values": [{"measurement": "T/C", "setting": "dose: 1.0 mg/kg/injection, schedule: Q01DX009 (ip), vehicle: saline with Tween-80", "result": "166 % of control and 194 % of control"}, {"measurement": "T/C", "setting": "dose: 1.32 mg/kg/injection, schedule: Q01DX009 (ip), vehicle: saline sonified", "result": "195 % of control"}, {"measurement": "T/C", "setting": "dose: 2.0 mg/kg/injection, schedule: Q01DX009 (ip), vehicle: saline sonified", "result": "215 % of control"}, {"measurement": "T/C", "setting": "dose: 2.0 mg/kg/injection, schedule: Q01DX009 (ip), vehicle: saline with Tween-80", "result": "151 % of control and 166 % of control and 212 % of control"}, {"measurement": "T/C", "setting": "dose: 3.0 mg/kg/injection, schedule: Q01DX009 (ip), vehicle: saline sonified", "result": "270 % of control"}, {"measurement": "T/C", "setting": "dose: 16.0 mg/kg/injection, schedule: Q01DX009 (ip), vehicle: saline with Tween-80", "result": "105 % of control"}]}
{"smiles": "ClCCN(CCN(CCCl)c1ccc2ccccc2c1)c1ccc2ccccc2c1", "values": [{"measurement": "T/C", "setting": "dose: 50.0 mg/kg/injection, schedule: Q01DX009 (ip), vehicle: Klucel (hydroxypropylcellulose) (HPC)", "result": "109 % of control"}, {"measurement": "T/C", "setting": "dose: 100.0 mg/kg/injection, schedule: Q01DX009 (ip), vehicle: Klucel (hydroxypropylcellulose) (HPC)", "result": "112 % of control"}, {"measurement": "T/C", "setting": "dose: 200.0 mg/kg/injection, schedule: Q01DX009 (ip), vehicle: Klucel (hydroxypropylcellulose) (HPC)", "result": "107 % of control"}]}
